Experimental data: PubChem BioAssay (NCI)
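All cell lines were grown in 96-well plates and treated with compound for 48 hours. GI50: concentration for 50% inhibition of growth. TGI denotes the concentration required for complete inhibition of growth.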

Assays:
Assay in all cases: NCI-60 cell line screen, 48 h; in the data active = GI50 below about 0.43 µM; inactive = the rest
HCT-15 colon = system: HCT-15 colon
SW-620 colon = system: SW-620 colon
NCI-H226 lung = system: NCI-H226 lung
HCT-116 colon = system: HCT-116 colon
OVCAR-8 ovarian = system: OVCAR-8 ovarian
MDA-MB-435 = system: MDA-MB-435
MCF7 breast = system: MCF7 breast
TK-10 renal = system: TK-10 renal
SF-295 CNS = system: SF-295 CNS
U251 CNS = system: U251 CNS
HOP-92 NSCLC = system: HOP-92 NSCLC
HL-60(TB) leukemia = system: HL-60(TB) leukemia
SK-MEL-28 melanoma = system: SK-MEL-28 melanoma
K-562 leukemia = system: K-562 leukemia
NCI/ADR-RES ovarian = system: NCI/ADR-RES ovarian
OVCAR-4 ovarian = system: OVCAR-4 ovarian
SF-539 CNS = system: SF-539 CNS
IGROV1 ovarian = system: IGROV1 ovarian
MALME-3M melanoma = system: MALME-3M melanoma
RXF 393 renal = system: RXF 393 renal
NCI-H460 lung = system: NCI-H460 lung
M14 melanoma = system: M14 melanoma
T-47D breast = system: T-47D breast
KM12 colon = system: KM12 colon
LOX IMVI melanoma = system: LOX IMVI melanoma
SNB-75 CNS = system: SNB-75 CNS
MOLT-4 leukemia = system: MOLT-4 leukemia
A498 renal = system: A498 renal
OVCAR-3 ovarian = system: OVCAR-3 ovarian
HS 578T breast = system: HS 578T breast
SK-MEL-5 melanoma = system: SK-MEL-5 melanoma
HT29 colon = system: HT29 colon
MDA-MB-231 breast = system: MDA-MB-231 breast
PC-3 prostate = system: PC-3 prostate
OVCAR-5 ovarian = system: OVCAR-5 ovarian
UACC-62 melanoma = system: UACC-62 melanoma
SNB-19 CNS = system: SNB-19 CNS
786-0 renal = system: 786-0 renal
NCI-H522 lung = system: NCI-H522 lung
EKVX NSCLC = system: EKVX NSCLC
NCI-H23 lung = system: NCI-H23 lung
CCRF-CEM leukemia = system: CCRF-CEM leukemia
SN12C renal = system: SN12C renal
SR leukemia = system: SR leukemia
A549 NSCLC = system: A549 NSCLC
ACHN renal = system: ACHN renal
DU-145 prostate = system: DU-145 prostate
BT-549 breast = system: BT-549 breast
UO-31 renal = system: UO-31 renal
RPMI-8226 leukemia = system: RPMI-8226 leukemia
COLO 205 colon = system: COLO 205 colon
UACC-257 melanoma = system: UACC-257 melanoma
HOP-62 NSCLC = system: HOP-62 NSCLC
CAKI-1 renal = system: CAKI-1 renal
SF-268 CNS = system: SF-268 CNS
HCC-2998 colon = system: HCC-2998 colon

COc1cc2c(cc1OCCCNC(=O)/C=C1/C[C@H]3C=Nc4cc(OCc5ccccc5)c(OC)cc4C(=O)N3C1)NC(=O)[C@@H]1CCCN1C2=O
> 100 µM: TGI (HCT-15 colon) | TGI (SW-620 colon) | TGI (NCI-H226 lung) | TGI (HCT-116 colon) | TGI (OVCAR-8 ovarian) | TGI (MDA-MB-435) | TGI (MCF7 breast) | TGI (TK-10 renal) | TGI (SF-295 CNS) | TGI (U251 CNS) | TGI (HOP-92 NSCLC) | TGI (HL-60(TB) leukemia) | TGI (SK-MEL-28 melanoma) | TGI (K-562 leukemia) | TGI (NCI/ADR-RES ovarian) | TGI (OVCAR-4 ovarian) | TGI (IGROV1 ovarian) | TGI (MALME-3M melanoma) | TGI (RXF 393 renal) | TGI (NCI-H460 lung) | TGI (M14 melanoma) | TGI (T-47D breast) | TGI (KM12 colon) | TGI (LOX IMVI melanoma) | TGI (MOLT-4 leukemia) | TGI (A498 renal) | TGI (OVCAR-3 ovarian) | TGI (HS 578T breast) | TGI (HT29 colon) | TGI (MDA-MB-231 breast) | TGI (PC-3 prostate) | TGI (OVCAR-5 ovarian) | TGI (UACC-62 melanoma) | TGI (SNB-19 CNS) | TGI (786-0 renal) | TGI (NCI-H522 lung) | TGI (EKVX NSCLC) | TGI (NCI-H23 lung) | TGI (CCRF-CEM leukemia) | TGI (SN12C renal) | TGI (A549 NSCLC) | TGI (ACHN renal) | TGI (DU-145 prostate) | TGI (UO-31 renal) | TGI (RPMI-8226 leukemia) | TGI (COLO 205 colon) | TGI (UACC-257 melanoma) | TGI (HOP-62 NSCLC) | TGI (CAKI-1 renal) | TGI (SF-268 CNS) | TGI (HCC-2998 colon)
85.5 µM: TGI (SF-539 CNS)
49.2 µM: TGI (SR leukemia)
inactive: GI50 (HCT-15 colon) > 100 µM | GI50 (SW-620 colon) 33.3 µM | GI50 (NCI-H226 lung) 69.5 µM | GI50 (HCT-116 colon) 73.7 µM | GI50 (OVCAR-8 ovarian) > 100 µM | GI50 (MDA-MB-435) 44.2 µM | GI50 (MCF7 breast) 32 µM | GI50 (TK-10 renal) > 100 µM | GI50 (SF-295 CNS) 84.7 µM | GI50 (U251 CNS) 33.3 µM | GI50 (HOP-92 NSCLC) 47.2 µM | GI50 (HL-60(TB) leukemia) 51.9 µM | GI50 (SK-MEL-28 melanoma) > 100 µM | GI50 (K-562 leukemia) 82.8 µM | GI50 (NCI/ADR-RES ovarian) > 100 µM | GI50 (OVCAR-4 ovarian) 73.8 µM | GI50 (SF-539 CNS) 32.4 µM | GI50 (IGROV1 ovarian) > 100 µM | GI50 (MALME-3M melanoma) > 100 µM | GI50 (RXF 393 renal) 33.6 µM | GI50 (NCI-H460 lung) 38.9 µM | GI50 (M14 melanoma) 55.3 µM | GI50 (T-47D breast) > 100 µM | GI50 (KM12 colon) 47.5 µM | GI50 (LOX IMVI melanoma) 43.3 µM | GI50 (SNB-75 CNS) 32.7 µM | GI50 (MOLT-4 leukemia) 29.6 µM | GI50 (A498 renal) 58.9 µM | GI50 (OVCAR-3 ovarian) > 100 µM | GI50 (HS 578T breast) 34.4 µM | GI50 (SK-MEL-5 melanoma) 22.5 µM | GI50 (HT29 colon) 45.2 µM | GI50 (MDA-MB-231 breast) 50.9 µM | GI50 (PC-3 prostate) 77.3 µM | GI50 (OVCAR-5 ovarian) 93.5 µM | GI50 (UACC-62 melanoma) 55.2 µM | GI50 (SNB-19 CNS) 43.3 µM | GI50 (786-0 renal) 51 µM | GI50 (NCI-H522 lung) 31.3 µM | GI50 (EKVX NSCLC) > 100 µM | GI50 (NCI-H23 lung) > 100 µM | GI50 (CCRF-CEM leukemia) 40.8 µM | GI50 (SN12C renal) 18.4 µM | GI50 (SR leukemia) 17.5 µM | GI50 (A549 NSCLC) > 100 µM | GI50 (ACHN renal) > 100 µM | GI50 (DU-145 prostate) 52.1 µM | GI50 (BT-549 breast) 23.9 µM | GI50 (UO-31 renal) > 100 µM | GI50 (RPMI-8226 leukemia) 43.6 µM | GI50 (COLO 205 colon) 54.6 µM | GI50 (UACC-257 melanoma) > 100 µM | GI50 (HOP-62 NSCLC) 41.3 µM | GI50 (CAKI-1 renal) > 100 µM | GI50 (SF-268 CNS) 39.6 µM | GI50 (HCC-2998 colon) 60.3 µM
68.1 µM: TGI (SK-MEL-5 melanoma)
53.5 µM: TGI (BT-549 breast)
98.1 µM: TGI (SNB-75 CNS)
